Entries after “also recorded” stand apart in the source; their conditions may differ.
Columns and labels:
GPR3 = target: T1, GPR3 (Homo sapiens, UniProt P46089); assay: GloSensor cAMP assay in GPR3 stably expressing AD293 cell line (agonist mode); type: cell-based; conditions: for maximum response: Table S2, relative cAMP level, at 500 μM (FA 12:0, 16:1, 18:0, OEA 18:1, OLM 18:1), 450 μM (FA 18:1), 400 μM (FA 16:0), 300 μM (FA 22:0, 18:2), 100 μM (FAME 18:0, FAEE 18:0, lysophospholipids), 3 μM (LTB4); for EC50: cAMP induction; for EC50 / cAMP induction activity (in words): GPR3 stably expressing AD293
T1 construct: expressed in transfected cells
Experimental: The GloSensor cAMP assay was performed according to the instructions of Promega. AD293 cells were split into 6-well plate (300,000 cells/mL) and then transfected with the pGloSensor™-22F cAMP plasmid and pcDNA3-GPR3 plasmid by Lipofectamine 2000, at a ratio of 2:1 (μL:μg). 24 h after transfection, cells were split into 96-well plate for another 24 h incubation. After removal of cell medium, 90 μL of 3% v/v (the GloSensor cAMP reagent vs serum-free medium) substrate was added into each well. After 2 h incubation at RT, background measurements were taken, and then 10 μL 10× stock compounds were added for the second measurements of ligand activation via EnVision 2105 (PerkinElmer). Relative cAMP level was calculated by the cAMP level after addition of ligand divided by the cAMP level before addition of ligand (basal level). Stock FAs (i.e., 10–50 mM) were solubilized in DMSO, then diluted in cell culture buffer to designated concentrations and sonicated to ensure that they were evenly distributed in the buffer before being added to cells.
AD293 cells were split into 6-well plate (300,000 cells/mL), and then transfected with the pGloSensor™-22F cAMP plasmid and the pcDNA6-GPR3-3× FLAG plasmid (WT receptor or the mutants, F120A^3.36, W260A^6.48, L283F^7.39, A201W^5.46, Y280A^7.36, H96A^2.60 and H96A^2.60/Y280A^7.36) by Lipofectamine 2000 at a ratio of 2:1 (μL:μg). Geneticin (2 mg/mL) and blasticidin (20 μg/mL) were used to select colonies that stably express both GPR3 and GloSensor 22F. The cell culture medium containing antibiotics was changed every 2 days till well-separated colonies appeared. Then individual single colony was picked by a small piece of sterilized filter paper soaked with trypsin and separately cultured in a single well of 24-well plate. At least 24 candidate colonies were selected for each mutant and WT. After several days of culture, each colony was triplicated. One of the triplicates was used for western blot analysis, another for the GloSensor cAMP assay, and the remaining one was stored for staining. The colonies with top scores in both expression (western blot) and functional assay were selected as the representative colonies for each mutant or WT for further analysis.

GPR6 = target: T2, GPR6 (Homo sapiens, UniProt P46095); assay: GloSensor cAMP assay in GPR6 stably expressing AD293 cell line; type: cell-based; conditions: lipid concentration 300 μM
T2 construct: FLAG; expressed in transfected cells

[1] = test system: Gs/cAMP/PKA signaling in iBAT; assay: Ex vivo iBAT of WT mice, p-PKA substrate immunoblot; type: cell-based, mouse; conditions: WT iBAT at 4 °C; lipid 1 mM (OA also 5 mM), up to 4 h
Experimental: iBAT was isolated from C57BL/6N mice at 4-6 weeks old and cut into 10 mg pieces. […] Another group of iBAT pieces were incubated in DMEM medium at 4 °C, and treated with different doses of OA (0 mM, 1 mM, 5 mM) for 4 h. OA (Sigma, O1008) was dissolved in serum-free DMEM (Gibco, high glucose, 12100046) by using an ultrasonic cleaner at 40 °C for 10 min.

T1 sequence (P46089 whole entry): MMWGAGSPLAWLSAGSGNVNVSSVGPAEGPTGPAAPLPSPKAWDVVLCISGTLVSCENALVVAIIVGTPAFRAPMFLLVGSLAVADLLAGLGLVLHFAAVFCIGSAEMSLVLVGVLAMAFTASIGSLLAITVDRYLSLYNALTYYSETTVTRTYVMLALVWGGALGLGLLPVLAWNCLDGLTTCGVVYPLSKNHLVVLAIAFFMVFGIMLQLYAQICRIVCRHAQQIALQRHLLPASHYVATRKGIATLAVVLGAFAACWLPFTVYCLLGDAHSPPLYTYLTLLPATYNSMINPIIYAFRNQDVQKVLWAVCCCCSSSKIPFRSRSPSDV
T2 sequence (P46095 whole entry, species assumed): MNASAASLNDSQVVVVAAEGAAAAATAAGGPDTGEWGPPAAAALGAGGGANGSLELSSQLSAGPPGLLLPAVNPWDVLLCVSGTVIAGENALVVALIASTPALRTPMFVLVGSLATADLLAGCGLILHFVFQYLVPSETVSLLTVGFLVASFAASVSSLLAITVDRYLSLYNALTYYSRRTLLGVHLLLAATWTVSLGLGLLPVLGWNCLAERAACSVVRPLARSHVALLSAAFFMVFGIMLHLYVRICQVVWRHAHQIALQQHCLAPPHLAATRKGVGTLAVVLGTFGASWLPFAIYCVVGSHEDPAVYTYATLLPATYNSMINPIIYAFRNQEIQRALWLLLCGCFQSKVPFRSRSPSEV

| maximum response (GPR3) | Emax compared to Emax of OA (GPR3; cAMP assay) | EC50 (GPR3) [µM] | GPR6 activation (in words) (GPR6) | Molecule | Emax / receptor activation compared to PAL (GPR3; cAMP assay) | cAMP induction activity (in words) (GPR3) | Gs/cAMP/PKA signaling (phosphorylation of PKA substrates) [1] |
| --- | --- | --- | --- | --- | --- | --- | --- |
| 75.1 | half of the Emax of OA | 334 |  | CCCCCCCC/C=C\CCCCCCCC(N)=O [OLM, Oleamide] |  |  |  |
| 118.7 | slightly lower Emax than OA | 311 |  | CCCCCCCCCCCCCCCC(=O)O [PAL, palmitic acid] |  |  |  |
| 61.8 |  | 328 | strongly activated GPR6 | CCCCCC/C=C\CCCCCCCC(=O)O [PML, palmitoleic acid] | half of the Emax of PAL; also recorded: substantially decreased receptor activation compared to PAL |  |  |
| 0.6 |  |  |  | CCCCCCCCCCCCC/C=C/[C@@H](O)[C@@H](N)COP(=O)(O)O [S1P, sphingosine-1-phosphate] |  | none of the lysophospholipids that we tested exhibited cAMP induction activity |  |
| 44.8 | about 1/3 | 361 |  | CCCCCCCCCCCCCCCCCC(=O)O [STE, stearic acid] |  | weak activity | neither STE nor LIN induced Gs/cAMP/PKA signaling |
| 0.5 |  |  |  | LPA 16:0 |  | none of the lysophospholipids that we tested exhibited cAMP induction activity |  |
| 0.5 |  |  |  | LPA 18:1 |  | none of the lysophospholipids that we tested exhibited cAMP induction activity |  |
| 1.8 |  |  |  | LPC 14:0 |  | none of the lysophospholipids that we tested exhibited cAMP induction activity |  |

| Molecule | maximum response (GPR3) | Emax compared to Emax of OA (GPR3; cAMP assay) | EC50 (GPR3) [µM] | GPR6 activation (in words) (GPR6) | Emax / receptor activation compared to PAL (GPR3; cAMP assay) | cAMP induction activity (in words) (GPR3) | Gs/cAMP/PKA signaling (phosphorylation of PKA substrates) [1] |
| --- | --- | --- | --- | --- | --- | --- | --- |
| CCCCCCCC/C=C\CCCCCCCC(=O)NCCO [OEA, oleoylethanolamide] | 60.9 | half of the Emax of OA | 336 |  |  |  |  |
